Key:
[1] = Inhibition of 20s immunoproteasome beta1 caspase-like activity in human spleen using Ac-Pro-Ala-Leu-AMC as substrate after 10 mins by fluorescence assay
[2] = Inhibition of 20s immunoproteasome beta5 chymotrypsin-like activity in human spleen using Suc-Leu-Leu-Val-Tyr-AMC as substrate after 10 mins by fluorescence assay
[3] = Inhibition of 20s immunoproteasome beta2 trypsin-like activity in human spleen using Boc-Leu-Arg-Arg-AMC as substrate after 10 mins by fluorescence assay
[4] = Inhibition of 20s constitutive proteasome beta1 caspase-like activity in human erythrocytes using Z-Leu-Leu-Glu-AMC as substrate after 10 mins by fluorescence assay
[5] = Inhibition of 20s constitutive proteasome beta2 trypsin-like activity in human erythrocytes using Boc-Leu-Arg-Arg-AMC as substrate after 10 mins by fluorescence assay

| Compound | Ki [1] [µM] | Ki [2] [µM] | Ki [3] [µM] | Ki [4] [µM] | Ki [5] [µM] |
| --- | --- | --- | --- | --- | --- |
| COc1ccc(/C=C2\NC(=S)N(c3ccccc3)C2=O)cc1O | 6.53 | 2.35 |  |  |  |
| O=C1/C(=C/c2ccc(Oc3ccccc3)cc2)NC(=S)N1c1cccc2ccccc12 |  |  | 5.57 | 9.64 |  |
| CSc1ccc(/C=C2\NC(=S)N(c3ccccc3)C2=O)cc1 |  |  | 4.38 |  | 20 |
| COc1ccc(/C=C2\NC(=S)N(c3ccccc3)C2=O)cc1 |  | 10.9 |  |  |  |

Now from value to compound:

| Ki [1] [µM] | Ki [2] [µM] | Ki [3] [µM] | Ki [4] [µM] | Ki [5] [µM] | Compound |
| --- | --- | --- | --- | --- | --- |
| 2.64 | 2.01 |  |  |  | COc1ccc(/C=C2\NC(=S)N(c3ccccc3)C2=O)cc1OC |
|  | 11.5 | 6.71 |  |  | COc1cc(/C=C2\NC(=S)N(c3ccccc3)C2=O)ccc1O |

From BindingDB's records for doi:10.1016/j.bmcl.2017.12.053 (n/a, 2018)
